Assay [1] addresses T1, Bifunctional epoxide hydrolase 2 (Homo sapiens, UniProt P34913).
T1 sequence (P34913 whole entry): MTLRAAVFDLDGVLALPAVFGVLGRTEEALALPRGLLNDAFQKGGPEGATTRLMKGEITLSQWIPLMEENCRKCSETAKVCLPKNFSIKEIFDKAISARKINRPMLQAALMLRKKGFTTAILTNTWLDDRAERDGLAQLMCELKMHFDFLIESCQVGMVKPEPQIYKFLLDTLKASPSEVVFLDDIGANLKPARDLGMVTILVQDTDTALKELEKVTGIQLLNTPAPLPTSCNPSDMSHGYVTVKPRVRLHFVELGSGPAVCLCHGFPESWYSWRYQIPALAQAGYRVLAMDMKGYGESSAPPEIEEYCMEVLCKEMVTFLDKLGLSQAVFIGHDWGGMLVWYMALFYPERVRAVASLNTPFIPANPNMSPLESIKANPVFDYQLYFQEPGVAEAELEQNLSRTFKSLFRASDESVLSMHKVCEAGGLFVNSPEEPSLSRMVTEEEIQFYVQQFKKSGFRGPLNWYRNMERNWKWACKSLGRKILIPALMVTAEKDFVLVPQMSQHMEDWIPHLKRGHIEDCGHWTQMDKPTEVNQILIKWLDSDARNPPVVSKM
The assay is described as follows: Inhibition of recombinant human soluble epoxide hydrolase assessed as increase in fluorescence intensity by fluorescence plate reader.

In assay [2] the target is T2, Bifunctional epoxide hydrolase 2 (Rattus norvegicus, UniProt P80299).
T2 sequence (P80299 whole entry): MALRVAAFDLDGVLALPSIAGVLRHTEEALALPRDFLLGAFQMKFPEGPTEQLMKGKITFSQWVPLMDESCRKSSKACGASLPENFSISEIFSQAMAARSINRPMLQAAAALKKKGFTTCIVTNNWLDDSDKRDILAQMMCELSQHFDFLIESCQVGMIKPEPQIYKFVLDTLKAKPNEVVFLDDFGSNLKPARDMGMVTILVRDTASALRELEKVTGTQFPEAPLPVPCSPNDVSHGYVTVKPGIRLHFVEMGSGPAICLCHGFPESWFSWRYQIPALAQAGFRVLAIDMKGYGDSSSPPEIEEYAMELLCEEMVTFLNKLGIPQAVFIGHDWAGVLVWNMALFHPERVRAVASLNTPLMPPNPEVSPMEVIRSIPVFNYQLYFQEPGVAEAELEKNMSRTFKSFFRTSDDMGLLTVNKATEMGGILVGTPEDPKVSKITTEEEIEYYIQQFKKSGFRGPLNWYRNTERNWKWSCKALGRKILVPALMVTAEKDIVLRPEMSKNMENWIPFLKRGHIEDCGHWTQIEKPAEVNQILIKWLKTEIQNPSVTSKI
Put plainly: Inhibition of recombinant rat soluble epoxide hydrolase assessed as increase in fluorescence intensity by fluorescence plate reader.

A value given as a limit tells only on which side of the number the result lay.

For `O=C(O)CCc1ccc(OC2CCN(C(=O)N[C@H]3C[C@@H]3c3ccccc3)CC2)cc1` (racemic), the results for the IC50 in assay [1] and in assay [2] were 19.1 nM and 55.6 nM, respectively.
For `O=C(O)CCc1ccc(OC2CCN(C(=O)N[C@@H]3[C@@H](c4ccc(F)cc4)[C@H]3c3ccc(F)cc3)CC2)cc1` the same measures were 2.1 nM and 3.2 nM.
As to `CN1CCN(C(=O)N[C@@H]2[C@@H](c3ccccc3)[C@H]2c2ccccc2)CC1`, the IC50 (in general, the point on the concentration scale where inhibition reaches its midpoint) turned out to be 14.4 nM in assay [1] and 27.7 nM in assay [2].
On to `C[C@@H]1[C@H](NC(=O)N2CCC(Oc3ccc(CCC(=O)O)cc3)CC2)[C@H]1c1ccccc1` (racemic), for which the IC50 in assay [1] was 75.7 nM; in assay [2], > 100 nM.
As for `O=C(N[C@@H]1[C@@H](c2ccccc2)[C@H]1c1ccccc1)N1CCC[C@@H](NS(=O)(=O)c2ccc(F)cc2)C1` (mixture of isomers), the IC50 in assay [1] was determined as 0.7 nM; in assay [2] it was 0.2 nM.
In the same order, the values of `C[C@H]1[C@H](NC(=O)N2CCC(Oc3ccc(CCC(=O)O)cc3)CC2)[C@H]1c1ccccc1` (racemic) are 12 nM and 11.7 nM.
`O=C(N[C@@H]1[C@@H](c2ccccc2)[C@H]1c1ccccc1)N1CCCCC1`: the IC50 in assay [1] amounted to 1.8 nM; in assay [2], 0.2 nM.
As to `CS(=O)(=O)N[C@@H]1CCCN(C(=O)N[C@@H]2[C@@H](c3ccccc3)[C@H]2c2ccccc2)C1` (mixture of isomers), the IC50 in assay [1] was 1.4 nM; in assay [2], 0.8 nM.
As to `CC1(C)[C@H](NC(=O)N2CCC(Oc3ccc(CCC(=O)O)cc3)CC2)[C@H]1c1ccccc1` (racemic), the IC50 in assay [1] and in assay [2] was > 100 nM each time.
On to `O=C(O)CCc1ccc(OC2CCN(C(=O)N[C@@H]3[C@@H](c4ccccc4)[C@H]3c3ccccc3)CC2)cc1`, for which the IC50 in assay [1] worked out at 2.3 nM; in assay [2] it was 3.9 nM.

These data come from ChEMBL document CHEMBL3400076, “Three-dimensional rational approach to the discovery of potent substituted cyclopropyl urea soluble epoxide hydrolase inhibitors” (Bioorg Med Chem Lett, 2015).
